Our source for the IC50 values is patent US5442060A, “Carboxamide derivatives” (Mitsubishi Kasei Corporation, priority 1992, dated 1995).

Counter-ions that a name gives are not always drawn.

In the assay the target is T1, ACAT (Homo sapiens, UniProt P35610).
T1 construct: endogenous in cells; host or cells: HepG2
T1 sequence (P35610 1-550): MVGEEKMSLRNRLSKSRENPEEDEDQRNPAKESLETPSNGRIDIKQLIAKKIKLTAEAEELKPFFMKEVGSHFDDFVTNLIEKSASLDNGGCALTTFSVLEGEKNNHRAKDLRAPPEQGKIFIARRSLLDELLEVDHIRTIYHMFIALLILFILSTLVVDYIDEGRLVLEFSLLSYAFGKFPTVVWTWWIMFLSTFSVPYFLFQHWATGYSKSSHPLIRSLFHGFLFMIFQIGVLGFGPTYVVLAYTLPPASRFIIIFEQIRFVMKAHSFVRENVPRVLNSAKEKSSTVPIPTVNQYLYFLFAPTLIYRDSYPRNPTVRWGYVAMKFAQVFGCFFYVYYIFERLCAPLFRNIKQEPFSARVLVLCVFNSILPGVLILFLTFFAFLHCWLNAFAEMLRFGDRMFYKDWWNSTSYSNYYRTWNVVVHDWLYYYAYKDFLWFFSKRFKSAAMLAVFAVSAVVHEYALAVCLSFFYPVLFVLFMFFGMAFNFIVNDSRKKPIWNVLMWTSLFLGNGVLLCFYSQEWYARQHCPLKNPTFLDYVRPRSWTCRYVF
Put plainly: ACAT inhibition: radiolabelled cholesterol oleate production from labelled oleic acid in HepG2 cells. The class given is cell-based. Particulars: concentration required to inhibit 50% of ACAT (cholesterol oleate production vs control). How it is done: ACAT inhibition of the compounds of the present invention were assayed by the following method. HepG2 cell coming from human hepatic cancer cell was used for assaying ACAT activity. Thus, the assay was effected by adding radioactivity labelled oleic acid-bovine serum albumin complex into an incubation solution of HepG2 cell and measuring the amount of radioactivity labelled cholesterol oleate produced from the radioactivity labelled oeleic acid within the cell. Therefore, the activity of the compound of this invention to inhibit ACAT was obtained by calculating how much percent lowered the productivity of cholesterol oleate in control group containing no test compound by adding the test compound in each concentration (μM) and then expressing IC50 value, namely concentration of a test compound required to inhibit 50% expression of enzyme.
With `CCCCC[C@@H](CNC(=O)Nc1c(OCC)ncnc1N(C)C)c1cccc2c1OCO2` [Example 30, (R)-1-[2-(2,3-methylenedioxyphenyl)heptyl]-3-(4-dimethylamino-6-ethoxypyrimidine-5-yl) urea], the IC50 was found to be 0.109 µM. Then `CCCCC[C@@H](CNC(=O)Nc1c(N(C)C)ncnc1N(C)C)c1cccc2c1OCO2` [Example 25, (R)-1-[2-(2,3-methylenedioxyphenyl)heptyl]-3-[4,6-bis (dimethylamino)pyrimidine-5-yl]urea], with 0.057 µM; and `CCCCC[C@@H](CNC(=O)Nc1c(OCC)ccc2c1CCCC2)c1cccc2c1OCO2` [Example 22, (R)-1-[2-(2,3-methylenedioxyphenyl)heptyl]-3-(2-ethoxy-5,6,7,8-tetrahydronaphthalene-1-yl) urea], with 0.139 µM; and `CCCCC[C@H](CC(=O)Nc1c(C(C)C)ccc(N(C)C)c1C(C)C)c1cccc2c1OCO2` [Example 18, (R)-N-(2,6-diisopropyl-3-dimethylaminophenyl)-3-(2,3-methylenedioxyphenyl) octanamide hydrochloride], with 0.101 µM. Next, `CCCCC[C@@H](CNC(=O)Nc1c(N2CCCC2)ncnc1N1CCCC1)c1cccc2c1OCO2` [Example 26, (R)-1-[2-(2,3-methylenedioxyphenyl)heptyl]-3-(4,6-dipyrrolidinopyrimidine-5-yl) urea]: 0.175 µM. Then `CCCCCC(CCC(=O)Nc1c(C(C)C)cccc1C(C)C)c1cccc(OC)c1OC` (centres unmarked) [Example 9, N-(2,6-Diisopropylphenyl)-4-(2,3-dimethoxyphenyl) nonanamide], with 0.05 µM. Take `CCCCC[C@@H](CNC(=O)Nc1c(OC(C)C)ncnc1OC(C)C)c1cccc2c1OCO2` [Example 29, (R)-1-[2-(2,3-methylenedioxyphenyl)heptyl]-3-[4,6-di (1-methylethoxy)pyrimidine-5-yl]urea]: the half-inhibitory concentration (IC50) amounted to 0.314 µM.

As to `CCCCC(CC(=O)Nc1c(C(C)C)cccc1C(C)C)c1cccc(OC)c1OC` (centres unmarked) [Example 3, N-(2,6-Diisopropylphenyl)-3-(2,3-dimethoxyphenyl) heptanamide], the midpoint of inhibition, the IC50, lay at 0.018 µM. Consider `CCCCC[C@@H](CNC(=O)Nc1c(OC(C)C)c(C)nn1-c1ccccc1)c1cccc2c1OCO2` [Example 31, (R)-1-[2-(2,3-methylenedioxyphenyl)heptyl]-3-[3-methyl-4-(1-methylethoxy)-1-phenylpyrazole-5-yl]urea], for which half-maximal inhibition (IC50) was put at 0.028 µM. Next, `CCCCCC(CC(=O)Nc1c(C(C)C)cccc1C(C)C)c1cccc(OC)c1OC` (centres unmarked) [Example 2, N-(2,6-Diisopropylphenyl)-3-(2,3-dimethoxyphenyl)octanamide]: 0.003 µM. Next, `CCCCC[C@@H](CNC(=O)Nc1cccc2c1OC(C)(C)C2)c1cccc2c1OCO2` [Example 24, (R)-1-[2-(2,3-methylenedioxyphenyl)heptyl]-3-(2,3-dihydro-2,2-dimethylbenzofuran-7-yl) urea]: 0.23 µM; `CCCCCCC(CC(=O)Nc1c(C(C)C)cccc1C(C)C)c1cccc(OC)c1OC` (centres unmarked) [Example 4, N-(2,6-Diisopropylphenyl)-3-(2,3-dimethoxyphenyl) nonanamide]: 0.0065 µM; `CCCCCC(CC(=O)Nc1c(C(C)C)cccc1C(C)C)c1cccc2c1OCO2` (centres unmarked) [Example 1, N-(2,6-diisopropylphenyl)-3-(2,3-methylenedioxyphenyl)octanamide]: 0.01 µM. Then `CCCCCC(CCC(=O)Nc1c(C(C)C)cccc1C(C)C)c1cccc2c1OCO2` (centres unmarked) [Example 8, N-(2,6-Diisopropylphenyl)-4-(2,3-methylenedioxyphenyl)nonanamide], with 0.01 µM; and `CCCCCC(CC(=O)Nc1c(C(C)C)cccc1C(C)C)c1cc(C(C)=O)cc(OC)c1OC` (centres unmarked) [Example 10, N-(2,6-Diisopropylphenyl)-3-(5-acetyl-2,3-dimethoxyphenyl) octanamide], with 0.0076 µM. Turning to `CCCCCC(CC(=O)Nc1c(C(C)C)cccc1C(C)C)c1cc(N(C)C)cc(OC)c1OC` (centres unmarked) [Example 17, N-(2,6-diisopropylphenyl)-3-(2,3-dimethoxy-5-dimethylaminophenyl) octanamide], the IC50 is 0.0009 µM.

Consider `CCCCC[C@@H](CNC(=O)Nc1c(OCC)ccc2c1CCC2)c1cccc2c1OCO2` [Example 23, (R)-1-[2-(2,3-methylenedioxyphenyl)heptyl]-3-(5-ethoxyindane-4-yl) urea], for which the half-inhibitory concentration (IC50) worked out at 0.195 µM. Then `CCCCC[C@@H](CNC(=O)Nc1c(OC(C)C)c(C)nn1C(C)(C)C)c1cccc2c1OCO2` [Example 34, (R)-1-[2-(2,3-methylenedioxyphenyl)heptyl]-3-[1-(1,1-dimethylethyl)-3-methyl-4-(1-methylethoxy)pyrazole-5-yl]urea], with 0.106 µM.

`CCCCC[C@@H](CNC(=O)Nc1c(OC)ccc2c1CCCC2)c1cccc2c1OCO2` [Example 21, (R)-1-[2-(2,3-methylenedioxyphenyl)heptyl]-3-(2-methoxy-5,6,7,8-tetrahydronaphthalene-1-yl) urea]: the 50% inhibitory concentration (IC50) was 0.154 µM. `CCCCC[C@@H](CNC(=O)Nc1c(OC(C)C)ccc2c1CCCC2)c1cccc2c1OCO2` [Example 20, (R)-1-[2-(2,3-methylenedioxyphenyl)heptyl]-3-(2-isopropoxy-5,6,7,8-tetrahydronaphthalene-1-yl) urea]: inhibition was half-maximal at 0.037 µM (IC50).

As a reminder, the IC50 is the concentration needed to halve the response being measured.
